Source: patent US8263589B2, “Inhibitors of protein aggregation” (Wista Laboratories Ltd., priority 2006, dated 2012)
Where two headings read alike, the source gives them in different places.

Tests used:
[1] = target: T1, α-synuclein (fsyn binding to solid phase tsyn) (Homo sapiens, UniProt P37840); assay: Solid phase ELISA assay for synuclein-synuclein binding
T1 construct: full-length α-synuclein (fsyn) was added in the aqueous phase; The core aggregation domain of α-synuclein (amino acids 31-109) was expressed with an N-terminal polyhistidine tag; polyhistidine (N); made in house; host or cells: E. coli
Procedure: A solid phase assay was used to measure self-association of α-synuclein. tsyn diluted in carbonate buffer (pH 8.5) was bound to the assay plate, and full-length α-synuclein (fsyn) was added in the aqueous phase. The aqueous phase binding buffer was 50 mM Na-phosphate, pH 6.0, 20 mM NaCl, 0.05% Tween-20, 1% fish skin gelatine.
The two α-synuclein proteins were also used in a binding assay. The tsyn is bound in the solid phase, and full-length fsyn is added in the aqueous phase. […]

[2] = target: α-synuclein (SSFsyn) in NIE-115 cells (Homo sapiens, UniProt P37840); assay: Cell based assay for α-synuclein aggregation (SSFsyn in NIE-115 cells differentiated with dbcAMP, immunoblot mAb 42); design: species or system mouse
Procedure: The cell based assay employed a mouse neuroblastoma cell line NIE-115 that had been engineered to express full-length α-synuclein incorporating an N-terminal signal sequence (SSfsyn) to target incorporation of the protein into the membrane (see WO02/059150). When the cells were differentiated with dibutyryl cyclicAMP (dbcAMP) (1 mM) expression of the α-synuclein protein was increased.
α-synuclein protein was detected by immunoblot using various anti-α-synuclein antibodies. These included: mAb 42 (BD Biosciences Cat No. 610787) that recognises an epitope within tsyn (residues 31-109 of α-synuclein). In addition to α-synuclein, mAb 42 also reacts non-specifically with a protein of higher molecular mass (the protein is not recognised by other anti-α-synuclein antibodies). This protein was used as an estimate of cell numbers as the level of this protein in cells correlates with cell density. Drugs were tested with these cells and an inhibitory activity (EC50) was calculated by determining the drug concentration in which the ratio of α-synuclein to the non-specific band fell to 50% of the value for cells treated with dbcAMP alone.
The timing of the addition of the dbcAMP and drug was varied and the length of time that the cells are left in the presence of drug+dbcAMP before collecting cells was also be varied.

[3] = target: T2, assembled tsyn (core aggregation domain of α-synuclein, amino acids 31-109) (Homo sapiens, UniProt P37840); assay: Fluorescence assay of disruption of assembled tsyn (thioflavine T / primulin); type: biochemical
T2 construct: The core aggregation domain of α-synuclein (amino acids 31-109) was expressed with an N-terminal polyhistidine tag; polyhistidine (N); made in house; host or cells: E. coli
Procedure: α-Synuclein proteins (tsyn or fsyn) were incubated at 37° C. for the times indicated in Figure legends with mixing to induce fibril formation. In some cases, 50 μg/ml heparin was included to enhance fibril formation.
Samples of 10 μl were then diluted to 100 μl with water, plus thioflavine T or primulin at 1 μM, or 0.2 or 5 μM in some cases. Fluorescence excitation spectra were measured in 96 well plates in a Varian Carey Eclipse Fluorescence Spectrophotometer, with the emission wavelength at 480 nm. Excitation spectra were corrected for the signal measured without tsyn and the peak signal measured from the spectra. The data were normalised to the value measured without compound and P50 values measured from plots of normalised fluorescence against concentration of compound.
The effect of the compounds on thioflavine T and primulin fluorescence could be due to competition for the fluorescence ligand rather than disruption of the fibrils. To test this, the experiment was done at three different concentrations of fluorophore, since the P50 will be dependent on fluorophore concentration only if the effect is due to competition.

[4] = 1 μM tsyn-16 (solid phase), 5 μM fsyn-20 (aqueous phase), 50 mM sodium phosphate pH 6.0, 20 mM NaCl, read-out: B50 (μM) in α-synuclein binding assay
[5] = tsyn-16 assembled with heparin (50 μg/ml), primulin 1 μM, mean ± SEM (n), read-out: P50 (μM) using primulin
[6] = tsyn-16 assembled with heparin (50 μg/ml), thioflavine T 1 μM, mean ± SEM (n), read-out: P50 (μM) using thioflavone T

Row | SMILES | IC50 [1, 4] [µM] | IC50 [3, 5] [µM] | IC50 [3, 6] [µM] | other results
1 | Cc1c(-c2ccccc2)oc2cc(O)ccc2c1=O [7-hydroxy-3-methyl-flavone, reference compound] | 141 |  |  | 
2 | CCc1cc(N(CC)CC)cc2[s+]c3cc(N(CC)CC)cc(CC)c3nc12 [DEETC, 1,9-Diethyl-ethyl-thioninium chloride] | 0.4 |  |  | activity in the synuclein-synuclein binding assay [1]: active; EC50 ([2]; ratio of α-synuclein to non-specific band falls to 50% of dbcAMP alone, immunoblot mAb 42, read-out: EC50, inhibition of FSyn expression in NIE cells differentiated with dbcAMP): 0.004 ± 0.001 µM; LD50 (NIE cells): 1.0 µM
3 | COc1cc(O)c2c(=O)c(O)c(-c3ccc(O)c(O)c3)oc2c1 [Rhamnetin, reference compound] | 11.4 ± 9.7 | 34.7 | 39.4 | inhibitory activity in the cell based assay ([2]; NIE-115 SSFsyn cells with dbcAMP): inhibitory; LD50 (NIE cells): 31 µM
4 | O=c1cc(-c2ccccc2)oc2cc(O)ccc12 [7-Hydroxy-flavone, reference compound] |  |  |  | IC50 [3]: > 50 µM; IC50 ([3]; P50 (μM) using primulin, tsyn-16 assembled with heparin (50 μg/ml), primulin 1 μM, mean ± SEM (n)): > 50 µM; IC50 [1]: 35.3 µM
5 | O=c1cc(-c2ccccc2)oc2cc(O)c(O)c(O)c12 [Baicalein, reference compound] | 2.5 | 28.2 | 47.6 | 

Further lines, with some results ahead:

Row | IC50 [1, 4] [µM] | IC50 [3, 5] [µM] | IC50 [3, 6] [µM] | SMILES | other results
6 | 43.1 |  |  | O=c1c(O)c(-c2ccc(O)c(O)c2)oc2ccccc12 [3,3′,4′-Trihydroxy-flavone, reference compound] | 
7 | 39.2 | 27.6 | 21.1 | O=c1c(O)c(-c2cc(O)c(O)c(O)c2)oc2cc(O)ccc12 [Robinetin, reference compound] | 
8 | 60.8 | > 50 | > 50 | COc1cc(-c2oc3cc(O)ccc3c(=O)c2O)ccc1O [Geraldol, reference compound] | 
9 | 88.2 |  |  | O=c1c(O)c(-c2ccc(O)c(O)c2)oc2cc(O)ccc12 [Fisetin, reference compound] | 
